Reference: patent US8946201B2, “Methods for inhibiting TGF-β” (Saint Louis University, priority 2007, dated 2015)

Experiments:
[1] = tested on: TβR-I and TβR-II; experiment: 125I-TGF-β1 affinity labeling, NRK cells; format: cell-based, rat; conditions: 1 hr
Protocol: (B, C, D, E) Cells were treated with increasing concentrations of cholesterol in the presence (C) and absence (B, D, E) of 0.2% β-CD, as indicated. After 1 hr at 37° C., ^125I-TGF-β1 affinity labeling of TβR-I and TβR-II in cells was performed at 0° C. ^125I-TGF-β1 affinity-labeled TβR-I and TβR-II were analyzed by 7.5% SDS-PAGE and autoradiography or quantified with a PhosphoImager. A representative of a total of three analyses is shown (top). The bracket indicates the locations of ^125I-TGF-β affinity-labeled TβR-I and TβR-II. The relative intensities of ^125I-TGF-β1 affinity-labeled TβR-I and TβR-II in cells treated without cholesterol were taken as 100%. The quantitative data from three analyses is shown (bottom).
After cross-linking, cell lysates were analyzed by 7.5% SDS-PAGE and autoradiography or quantified by a PhosphoImager. For all experiments, cholesterol or cholesterol derivatives were prepared as the stock solution with a concentration of 25 mg/ml in ethanol. The final concentration of ethanol in the medium was 0.2% (by vol.).

[2] = tested on: Mv1Lu cells; experiment: [Methyl-3H]thymidine incorporation (DNA synthesis), Mv1Lu cells; format: cell-based, mink
Protocol: (A, B, C, D, E, F) Cells were treated with 50 μg/ml cholesterol (A, B, C, D) and 50 μg/ml LDL (D) at 37° C. for 1 hr or with 1 μM fluvastatin or lovastatin (E) or several concentrations of fluvastatin (F) at 37° C. for 16 hr and then further incubated with increasing concentrations (as indicated) of TGF-β1 (A, B, C, E) or 50 pM TGF-β1 (D,F) for 2 hr. Northern blot analysis of PAI-1 and G3PDH was performed. A representative of a total of three analyses is shown (a). The relative intensities of the transcripts were quantified with a PhosphoImager. The ratio of the relative intensities of PAI-1 and G3PDH transcripts in cells treated without TGF-β1 and cholesterol, LDL or statins on the blot was taken as 1 fold or 100% of PAI-1 expression. The quantitative data from three independent analyses is shown (b). […] (G) Mv1Lu cells stably expressing a luciferase reporter gene driven by the PAI-1 promoter (MLECs-clone 32) were treated with increasing concentrations (as indicated) of cholesterol at 37 EC for 1 hr (a) or with 1 μM lovastatin at 37° C. for 16 hr (b) and then further incubated with 50 pM TGF-β for 7 hr. The luciferase activity in cells treated without cholesterol was taken as 100% (a). […] (H) Cells were incubated with 0.0625 and 0.125 pM TGF-β1 in the presence of increasing concentrations of cholesterol, as indicated. After 18 hr at 37° C., cell growth was determined by measurement of [^3H-methyl]thymidine incorporation into cellular DNA (a). The [^3H-methyl]thymidine incorporation in cells treated with vehicle only (T1); with TGF-β1 (T2); with cholesterol (T3); with cholesterol and TGF-β1 (T4) was measured. T1 was taken as 100%. The degree (%) of cholesterol-mediated reversal of TGF-β1 growth inhibition was estimated by the equation: % reversal=[1−(T3−T4/T1−T2)]×100 Cholesterol appeared to reverse TGF-β1 growth inhibition in a dose-dependent manner (b). The experiments were carried out in triplicate.
The growth of cholesterol-treated cells was determined by measurement of [methyl-^3H]thymidine incorporation into cellular DNA as described (30). Briefly, cells grown near confluence on 48-well clustered dishes were treated with several concentrations of cholesterol at 37° C. for 1 hr in serum-free DMEM. The final concentration of ethanol (the vehicle for cholesterol) in the medium was 0.2%. […] The [methyl-^3H]thymidine incorporation into cellular DNA was then determined by incubation of cells with [methyl-^3H]thymidine at 37° C. for 2 hr in DMEM containing 0.1% fetal calf serum. […]
Another prominent biological activity of TGF-β is growth inhibition of many different cell types. […] DNA synthesis was then determined by measurement of [^3H-methyl]thymidine incorporation into cellular DNA (FIG. 2Ha). […]

CC(C)CCC[C@@H](C)[C@H]1CC[C@H]2[C@@H]3CC=C4C[C@@H](O)CC[C@]4(C)[C@H]3CC[C@]12C [cholesterol]
increase of 125I-TGF-β1 binding to TβR-I ([1]; 50 μg/ml): ~5.7 fold | ratio of TβR-II/TβR-I ([1]; 50 μg/ml, 2.0 untreated): 0.35 | effect on binding of 125I-TGF-β1 to TβR-II ([1]; increasing concentrations): did not significant alter | reversal of DNA synthesis inhibition induced by TGF-β1 ([2]; 8 μg/ml, 0.0625 and 0.125 pM TGF-β1, 18 hr): almost completely reversed | effect on DNA synthesis, alone ([2]; 6 and 8 μg/ml, without TGF-β1): inhibited
